This note sets out measurements from patent publication US11351236B2, “BCMA chimeric antigen receptors” (2seventy bio, Inc., priority 2014, dated 2022).

In the experiment the test system is human multiple myeloma (RPMI-8226) tumors. As to the kind of experiment: Sub-cutaneous human multiple myeloma (RPMI-8226) tumor model in NSG mice. It is filed as in vivo, mouse. The settings on record: ~100 mm^3 RPMI-8226 tumors, 10^7 CAR T cells or Bortezomib, two independent experiments. The protocol: Hyperactivation and increased apoptosis could negatively impact CAR T cell persistence in patients and ultimately clinical efficacy. The anti-tumor function of anti-BCMA02 CAR T cells and anti-BCMA10 CAR T cells was examined in a mouse tumor model. NOD scid gamma (NSG) mice with ˜100 mm^3 experimental sub-cutaneous human multiple myeloma (RPMI-8226) tumors were treated with 10^7 anti-BCMA02 CAR T cells, 10^7 anti-BCMA10 CAR T cells, or Bortezomib (velcade). RPMI-8226 growth was monitored with calipers.

Take `CC(C)C[C@H](NC(=O)[C@H](Cc1ccccc1)NC(=O)c1cnccn1)B(O)O` [Bortezomib]: the “tumor growth (calipers)” value is “controlled tumor growth”.
